Results from patent publication US20060154990A1, “Use of MEK inhibitors in treating abnormal cell growth” (AGOURON PHARMACEUTICALS, INC., priority 2004, published 2006).
Values joined by “and” are separate entries in the source; they are usually repeats but may differ in a detail not shown here. Identical values can stand only once. Marks after values point to notes of the source that are not given here.

Key:
[1] = system: ERK phosphorylation in tumor cells; experiment: ERK phosphorylation in tumor cells grown in culture with 10% serum; format: cell-based; conditions: read-out: IC50, reducing ERK phosphorylation
pERK in MiaPaCa2 tumors = experiment: Tumor pERK inhibition and PK-PD in MiaPaCa2 xenograft; parameters: species or system mice; conditions: Mus musculus, MIA PaCa-2, 24 h, 25 mg/kg oral, read-out: Ex vivo % pERK inhibition at 24 h
[2] = system: C26 mouse colon carcinoma; experiment: Antitumor activity against C26 mouse colon carcinoma
pERK in tumor biopsies = experiment: Immunohistochemical analysis of pERK in paired tumor biopsies; conditions: for pERK Post-Treatment: H-score
Text: The phosphorylation status of ERK can be assessed through antibody-based detection methods, utilizing phosphorylation site-specific antibodies. […] The biopsy tissues were paraffin-embedded following standard tissue processing. The antibody used for detection of pERK was the mouse monoclonal anti-MAP kinase (activated) antibody, manufactured by Sigma-Aldrich Co. (catalog number: M8159). This antibody is reacts specifically with the dually phosphorylated form of MAPK (both the ERK-1 and ERK-2 forms). Tissue sections prepared from the paraffin blocks were pretreated with Heat-induced Epitope Retrieval conditions (3 minutes at 120° C.) prior to the detection procedure. […] Staining intensity was grouped in categories from 0 to 3+, with 0 being little or no staining, and 3 being the most intense staining. […] For each biopsy specimen, 2 sections were analyzed and the average of these was taken for the pERK H-score. In addition to H-scores, the total % of positive cells was also recorded.

[3] = Plasma pharmacokinetics after multiple oral doses in advanced cancer patients
Experimental: Pharmacokinetic data are presented for the first 38 subjects.
Blood samples were collected from patients into a purple-top potassium EDTA Vacutainer tube. Following mixing with gentle inversion (8-10 times), tubes were centrifuged within 20 minutes at 1000×g for 15 minutes, to harvest plasma. Plasma samples were stored at −20° C. until analysis.
The following results are based on preliminary pharmacokinetic parameters from the 38 subjects, estimated using nominal collection times and quality-controlled, non quality-assured bioanalytical data. Pharmacokinetic parameters were determined by the non-compartmental method using WINNONLIN Professional Edition (Version 4.1). […] The maximum observed concentration (Cmax) was obtained by inspection of the concentration data. The time to reach the Cmax was the first time at which Cmax is observed and obtained by inspection of the data. The pre-dose concentration (Ctrough) was obtained by inspection of the concentration data.

[4] = C26, MTD 25 mg/kg/d oral 14 days
[5] = C26, oral BID D9-22, 1.56 mg/kg/dose
[6] = C26, oral BID D9-22, 3.125 mg/kg/dose
[7] = C26, oral BID D9-22, 6.25 mg/kg/dose
[8] = C26, oral BID D9-22, 12.5 mg/kg/dose
[9] = C26, oral BID D9-22, 12.5 mg/kg/dose (toxic)
[10] = C26, oral QD D9-22, 3.125 mg/kg/dose
[11] = C26, oral QD D9-22, 6.25 mg/kg/dose
[12] = C26, oral QD D9-22, 12.5 mg/kg/dose
[13] = C26, oral QD D9-22, 25 mg/kg/dose
[14] = C26 colon, oral 25 mg/kg once a day for 14 days
[15] = Colon26, 25 mg/kg PO QD Days 11-24 (MTD)
[16] = Colon26, 100 mg/kg IV QD Days 8-12, 15-19 (MTD)
[17] = 1 mg BID, melanoma, individual patients
[18] = 1 mg QD, breast, individual patient
[19] = 1 mg QD, melanoma, individual patients
[20] = 2 mg BID, colon, individual patient
[21] = 2 mg BID, lung, individual patient
[22] = 2 mg BID, melanoma, individual patients
[23] = 4 mg BID, lung, individual patient
[24] = 4 mg BID, melanoma, individual patient
[25] = 8 mg BID, breast, individual patient
[26] = 15 mg BID, breast, individual patient
[27] = 15 mg BID, melanoma, individual patient
[28] = 20 mg BID continuous, melanoma, individual patients
[29] = 20 mg BID, melanoma, individual patient
[30] = 30 mg BID, colon, individual patient
[31] = 30 mg BID, melanoma, individual patients
[32] = 1 mg BID, melanoma, individual patient
[33] = 30 mg BID, melanoma, individual patient
[34] = patients, 1 mg BID, C1D21, fasting, mean
[35] = patients, 1 mg QD, C1D21, fasting, mean
[36] = patients, 2 mg BID, C1D21, fasting, mean
[37] = patients, 15 mg BID, C1D21, fasting, mean
[38] = patients, 20 mg BID continuous, C1D21, fasting, mean

O=C(NOC[C@H](O)CO)c1ccc(F)c(F)c1Nc1ccc(I)cc1F [Compound 1, N-[(R)-2,3-dihydroxy-propoxy]-3,4-difluoro-2-(2-fluoro-4-iodo-phenylamino)-benzamide]
IC50 [1]: 0.59 nM
inhibition at 25 mg/kg (pERK in MiaPaCa2 tumors): 93%
doses at which Grade 3 rashes were seen (human, in vivo): above 15 mg BID
effect on serum (C×P) product (human, in vivo): no notable effect
MTD (patients, dosing 21 days of a 28-day cycle): 20 mg BID
animals showing complete response [2, 4]: 70%
animals showing either a complete or partial response [2, 4]: 100%
animals showing partial response [2, 4]: 30%
CR (complete response) [2, 5]: 4 of 5 and 4/5
Net Log10 kill [2, 5]: 0.0
Non-specific Deaths [2, 5]: 0/5
PR (partial response) [2, 5]: 1/5
T − C [2, 5]: 13.1 days
Tumor Free [2, 5]: 0/5
CR (complete response) [2, 6]: 4/5
Net Log10 kill [2, 6]: 0.3
Non-specific Deaths [2, 6]: 0/5
PR (partial response) [2, 6]: 1/5
T − C [2, 6]: 15.2 days
Tumor Free [2, 6]: 0/5
CR (complete response) [2, 7]: 5/5
Net Log10 kill [2, 7]: 0.3
Non-specific Deaths [2, 7]: 0/5
PR (partial response) [2, 7]: 0/5
T − C [2, 7]: 15.7 days
Tumor Free [2, 7]: 0/5
Net Log10 kill [2, 8]: Toxic
Non-specific Deaths [2, 8]: 4/5^h
T − C [2, 8]: Toxic
Tumor Free [2, 8]: Toxic
CR (complete response) [2, 9]: 5/5 Toxic
PR (partial response) [2, 9]: 0/5 Toxic
CR (complete response) [2, 10]: 1 of 5 and 1/5
Net Log10 kill [2, 10]: −0.1
Non-specific Deaths [2, 10]: 0/5
PR (partial response) [2, 10]: 4/5
T − C [2, 10]: 12.1 days
Tumor Free [2, 10]: 0/5
CR (complete response) [2, 11]: 3/5
Net Log10 kill [2, 11]: 0.0
Non-specific Deaths [2, 11]: 0/5
PR (partial response) [2, 11]: 2/5
T − C [2, 11]: 12.9 days
Tumor Free [2, 11]: 0/5
CR (complete response) [2, 12]: 5/5
Net Log10 kill [2, 12]: 0.2
Non-specific Deaths [2, 12]: 0/5
PR (partial response) [2, 12]: 0/5
T − C [2, 12]: 15.0 days
Tumor Free [2, 12]: 0/5
CR (complete response) [2, 13]: 5/5
Net Log10 kill [2, 13]: 0.3
Non-specific Deaths [2, 13]: 0/5
PR (partial response) [2, 13]: 0/5
T − C [2, 13]: 15.3 days
Tumor Free [2, 13]: 0/5
CR (complete responder) [2, 14]: 7/10
PR (partial responder) [2, 14]: 3/10
T − C [2, 14]: 15.4 days
Tumor Free [2, 14]: 0/10
Tumor growth delay ([2]; C26 tumor, 25 mg/kg oral once a day for 14 days (MTD)): 15.4 days
Total daily dose producing 70% complete tumor responses ([2]; C26 tumor, oral for 14 days): 25 mg/kg
CR [2, 15]: 10/10
Deaths [2, 15]: 0/10
Net Log Kill [2, 15]: 0.2
PR [2, 15]: 0/10
T − C [2, 15]: 12.6 days
CR [2, 16]: 9/10
Deaths [2, 16]: 1/10
Net Log Kill [2, 16]: 0.6
PR [2, 16]: 1/10
T − C [2, 16]: 15.8 days
pERK % Reduction from Baseline (pERK in tumor biopsies; [17]): −65% and 0%
pERK % Reduction from Baseline (pERK in tumor biopsies; [18]): −4%
pERK % Reduction from Baseline (pERK in tumor biopsies; [19]): −93% and 0%
pERK % Reduction from Baseline (pERK in tumor biopsies; [20]): 0%
pERK % Reduction from Baseline (pERK in tumor biopsies; [21]): −95%
pERK % Reduction from Baseline (pERK in tumor biopsies; [22]): −97% and −100%
pERK % Reduction from Baseline (pERK in tumor biopsies; [23]): −100%
pERK % Reduction from Baseline (pERK in tumor biopsies; [24]): −70%
pERK % Reduction from Baseline (pERK in tumor biopsies; [25]): −93%
pERK % Reduction from Baseline (pERK in tumor biopsies; [26]): −9%
pERK % Reduction from Baseline (pERK in tumor biopsies; [27]): −100%
pERK % Reduction from Baseline (pERK in tumor biopsies; [28]): −100% and −72% and −18%
pERK % Reduction from Baseline (pERK in tumor biopsies; [29]): −100%
pERK % Reduction from Baseline (pERK in tumor biopsies; [30]): −91%
pERK % Reduction from Baseline (pERK in tumor biopsies; [31]): −4% and −87%
pERK Post-Treatment (pERK in tumor biopsies; [17]): 45 and 40
pERK Post-Treatment (pERK in tumor biopsies; [18]): 135
pERK Post-Treatment (pERK in tumor biopsies; [19]): 3 and 78
pERK Post-Treatment (pERK in tumor biopsies; [20]): 12
pERK Post-Treatment (pERK in tumor biopsies; [21]): 8
pERK Post-Treatment (pERK in tumor biopsies; [22]): 10 and 0
pERK Post-Treatment (pERK in tumor biopsies; [23]): 0
pERK Post-Treatment (pERK in tumor biopsies; [24]): 50
pERK Post-Treatment (pERK in tumor biopsies; [25]): 5
pERK Post-Treatment (pERK in tumor biopsies; [26]): 150
pERK Post-Treatment (pERK in tumor biopsies; [27]): 0
pERK Post-Treatment (pERK in tumor biopsies; [28]): 0 and 23 and 45
pERK Post-Treatment (pERK in tumor biopsies; [29]): 1
pERK Post-Treatment (pERK in tumor biopsies; [30]): 3
pERK Post-Treatment (pERK in tumor biopsies; [31]): 70 and 15
Compound 1 AUC(0-24), Day 21 [3, 32]: 275 ng·h/mL
Compound 1 Css, avg [3, 32]: 11 ng/mL
Compound 1 AUC(0-24), Day 21 [3, 18]: 130 ng·h/mL
Compound 1 Css, avg [3, 18]: 5.4 ng/mL
Compound 1 AUC(0-24), Day 21 [3, 19]: 170 ng·h/mL and 112 ng·h/mL
Compound 1 Css, avg [3, 19]: 7.1 ng/mL and 4.7 ng/mL
Compound 1 AUC(0-24), Day 21 [3, 20]: 898 ng·h/mL
Compound 1 Css, avg [3, 20]: 37 ng/mL
Compound 1 AUC(0-24), Day 21 [3, 21]: 943 ng·h/mL
Compound 1 Css, avg [3, 21]: 39 ng/mL
Compound 1 AUC(0-24), Day 21 [3, 22]: 785 ng·h/mL and 2020 ng·h/mL
Compound 1 Css, avg [3, 22]: 33 ng/mL and 84 ng/mL
Compound 1 AUC(0-24), Day 21 [3, 23]: 1974 ng·h/mL
Compound 1 AUC(0-24), Day 21 [3, 24]: 1426 ng·h/mL
Compound 1 Css, avg [3, 24]: 59 ng/mL
Compound 1 AUC(0-24), Day 21 [3, 26]: 7680 ng·h/mL
Compound 1 Css, avg [3, 26]: 320.0 ng/mL
Compound 1 AUC(0-24), Day 21 [3, 27]: 2480 ng·h/mL
Compound 1 Css, avg [3, 27]: 103.3 ng/mL
Compound 1 AUC(0-24), Day 21 [3, 28]: 5480 ng·h/mL and 5800 ng·h/mL
Compound 1 Css, avg [3, 28]: 228.3 ng/mL and 241.7 ng/mL
Compound 1 AUC(0-24), Day 21 [3, 29]: 10560 ng·h/mL
Compound 1 AUC(0-24), Day 21 [3, 30]: 12000 ng·h/mL
Compound 1 AUC(0-24), Day 21 [3, 33]: 12920 ng·h/mL
Compound 1 Css, avg [3, 33]: 538.3 ng/mL
overall coefficient of variation (CV) for AUC(0-24) ([3]; fasted state, inter-subject variability): 39%
elimination plasma half-life ([3]; patients): 5 to 16 h
AUC(0-24) [3, 34]: 338 ng·h/mL
Ctrough [3, 34]: 9.17 ng/mL
AUC(0-24) [3, 35]: 143 ng·h/mL
Cmax [3, 35]: 22.3 ng/mL
Ctrough [3, 35]: 3.00 ng/mL
Tmax [3, 35]: 2 h
AUC(0-24) [3, 36]: 1161 ng·h/mL
Ctrough [3, 36]: 27.4 ng/mL
Ctrough ([3]; patients, 4 mg BID, C1D21, fasting, mean): 28.0 ng/mL
AUC(0-24) [3, 37]: 5687 ng·h/mL
Ctrough [3, 37]: 142 ng/mL
AUC(0-24) [3, 38]: 6572 ng·h/mL
Cmax [3, 38]: 989 ng/mL
Ctrough [3, 38]: 83.7 ng/mL
T1/2 [3, 38]: 5.1 h
Tmax [3, 38]: 2 h
Ctrough ([3]; patients, 20 mg BID, C1D21, fasting, mean): 112 ng/mL
Ctrough ([3]; patients, 30 mg BID, C1D21, fasting, mean): 157 ng/mL
